In PMC11676667, “Pharmacokinetics of Oral Cannabinoid Δ8-Tetrahydrocannabivarin and Its Main Metabolites in Healthy Participants” (Pharmaceuticals, 2024):
Read-outs that look alike come from different tables or passages of the source.

How the values were obtained:
[1] = Plasma pharmacokinetics after single oral dose of Δ8-THCV in MCT oil (LC-MS/MS, non-compartmental analysis); format: in vivo, human; conditions: for concentration at 0.5 h / concentration at 1 h / concentration at 2 h / concentration at 4 h / concentration at 6 h / concentration at 8 h / AUC(0-t) / Cmax / MRT / Tmax: human; for concentration at 0.5 h / concentration at 1 h / concentration at 2 h / concentration at 4 h / concentration at 6 h / concentration at 8 h: oral; for AUC(0-t) / Cmax / MRT / Tmax: po; for MRT: read-out: MRT (mean residence time); for Tmax: read-out: tmax
In short: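 Healthy participants received single oral Δ8-THCV in MCT oil (50 mg/mL; 12.5-200 mg, or placebo) after a high-fat, high-calorie breakfast, with ≥1-week washout. Plasma (K2EDTA) sampled predose and 0.5-8 h post-dose, assayed by validated LC-MS/MS including metabolites; PK by non-compartmental analysis, sub-LLOQ values set to 0.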

CB2 receptors = test system: CB2 receptors; design: method as in PMID 21470208; conditions: in vitro; cited from earlier work
[2] = plasma, 100 mg, 100 mg Δ8-THCV dose, Mean (SD, %CV)
[3] = plasma, 100 mg, 100 mg Δ8-THCV dose, Median (IQ Range)
[4] = plasma, 200 mg, 200 mg Δ8-THCV dose, Mean (SD, %CV)
[5] = plasma, 200 mg, 200 mg Δ8-THCV dose, Median (IQ Range)
[6] = plasma, 12.5 mg, 12.5 mg single oral Δ8-THCV in MCT oil, Mean (±SD)
[7] = plasma, 12.5 mg, 12.5 mg single oral Δ8-THCV in MCT oil, Median (Range)
[8] = plasma, 12.5 mg, 12.5 mg single oral Δ8-THCV in MCT oil, plasma, Mean (±SD)
[9] = plasma, 12.5 mg, 12.5 mg single oral Δ8-THCV in MCT oil, plasma, Median (Range)
[10] = plasma, 25 mg, 25 mg single oral Δ8-THCV in MCT oil, Mean (±SD)
[11] = plasma, 25 mg, 25 mg single oral Δ8-THCV in MCT oil, Median (Range)
[12] = plasma, 25 mg, 25 mg single oral Δ8-THCV in MCT oil, plasma, Mean (±SD)
[13] = plasma, 25 mg, 25 mg single oral Δ8-THCV in MCT oil, plasma, Median (Range)
[14] = plasma, 50 mg, 50 mg single oral Δ8-THCV in MCT oil, Mean (±SD)
[15] = plasma, 50 mg, 50 mg single oral Δ8-THCV in MCT oil, Median (Range)
[16] = plasma, 50 mg, 50 mg single oral Δ8-THCV in MCT oil, plasma, Mean (±SD)
[17] = plasma, 50 mg, 50 mg single oral Δ8-THCV in MCT oil, plasma, Median (Range)
[18] = plasma, 100 mg, 100 mg single oral Δ8-THCV in MCT oil, Mean (±SD)
[19] = plasma, 100 mg, 100 mg single oral Δ8-THCV in MCT oil, Median (Range)
[20] = plasma, 100 mg, 100 mg single oral Δ8-THCV in MCT oil, plasma, Mean (±SD)
[21] = plasma, 100 mg, 100 mg single oral Δ8-THCV in MCT oil, plasma, Median (Range)
[22] = plasma, 200 mg, 200 mg single oral Δ8-THCV in MCT oil, Mean (±SD)
[23] = plasma, 200 mg, 200 mg single oral Δ8-THCV in MCT oil, Median (Range)
[24] = plasma, 200 mg, 200 mg single oral Δ8-THCV in MCT oil, plasma, Mean (±SD)
[25] = plasma, 200 mg, 200 mg single oral Δ8-THCV in MCT oil, plasma, Median (Range)

Compound CCCc1cc(O)c2c(c1)OC(C)(C)[C@@H]1CC=C(CO)C[C@@H]21 (racemic) [11-OH-Δ8-THCV, (±)-11-hydroxy-Δ8-THCV] has a concentration at 0.5 h [1, 2] of 0 ng/mL, a concentration at 0.5 h [1, 3] of 0 ng/mL and a concentration at 1 h [1, 2] of 1.4 ng/mL. For the same compound, the concentration at 1 h [1, 3] was 0.5 ng/mL, the concentration at 2 h [1, 2] was 1.8 ng/mL and the concentration at 2 h [1, 3] was 1 ng/mL. The concentration at 4 h [1, 2] was 2.1 ng/mL, the concentration at 4 h [1, 3] was 1.3 ng/mL and the concentration at 6 h [1, 2] was 2.4 ng/mL. The concentration at 6 h [1, 3] was 1.5 ng/mL, the concentration at 8 h [1, 2] was 1.3 ng/mL and the concentration at 8 h [1, 3] was 1.1 ng/mL. The concentration at 0.5 h [1, 4] was 0 ng/mL, the concentration at 0.5 h [1, 5] was 0 ng/mL and the concentration at 1 h [1, 4] was 1.2 ng/mL. It also gave a concentration at 1 h [1, 5] of 0 ng/mL, a concentration at 2 h [1, 4] of 4.5 ng/mL and a concentration at 2 h [1, 5] of 1.8 ng/mL. For the same compound, the concentration at 4 h [1, 4] was 5.2 ng/mL, the concentration at 4 h [1, 5] was 3.4 ng/mL and the concentration at 6 h [1, 4] was 4.6 ng/mL. The concentration at 6 h [1, 5] was 3.7 ng/mL, the concentration at 8 h [1, 4] was 3.7 ng/mL and the concentration at 8 h [1, 5] was 3.1 ng/mL. For the same compound, the AUC(0-t) [1, 6] was 0.7 ng·h/mL, the Cmax [1, 6] was 0.8 ng/mL and the AUC(0-t) [1, 7] was 0.8 ng·h/mL. The Cmax [1, 7] was 0.8 ng/mL, the MRT [1, 8] was 1.5 h and the Tmax [1, 8] was 3.4 h. It also gave an MRT [1, 9] of 1.4 h, a Tmax [1, 9] of 4 h and an AUC(0-t) [1, 10] of 1.5 ng·h/mL. It also gave a Cmax [1, 10] of 0.9 ng/mL, an AUC(0-t) [1, 11] of 0.8 ng·h/mL and a Cmax [1, 11] of 0.8 ng/mL. The MRT [1, 12] was 3.6 h, the Tmax [1, 12] was 3.7 h and the MRT [1, 13] was 3.6 h. For the same compound, the Tmax [1, 13] was 4 h, the AUC(0-t) [1, 14] was 6.2 ng·h/mL and the Cmax [1, 14] was 2 ng/mL. The AUC(0-t) [1, 15] was 5.3 ng·h/mL, the Cmax [1, 15] was 1.9 ng/mL and the MRT [1, 16] was 5.7 h. It also gave a Tmax [1, 16] of 5 h, an MRT [1, 17] of 6.1 h and a Tmax [1, 17] of 6 h. For the same compound, the AUC(0-t) [1, 18] was 13.9 ng·h/mL, the Cmax [1, 18] was 4.3 ng/mL and the AUC(0-t) [1, 19] was 12.4 ng·h/mL. The Cmax [1, 19] was 3.4 ng/mL, the MRT [1, 20] was 4.6 h and the Tmax [1, 20] was 4.2 h. For the same compound, the MRT [1, 21] was 4.3 h, the Tmax [1, 21] was 5 h and the AUC(0-t) [1, 22] was 30.8 ng·h/mL. The Cmax [1, 22] was 8.7 ng/mL, the AUC(0-t) [1, 23] was 29.5 ng·h/mL and the Cmax [1, 23] was 6.4 ng/mL. The MRT [1, 24] was 4.8 h, the Tmax [1, 24] was 4.7 h and the MRT [1, 25] was 4.7 h. For the same compound, the Tmax [1, 25] was 4 h, the “number of positive plasma samples” value ([1]; of 504 plasma samples from 15 participants after oral Δ8-THCV) was 157 and the “concentration in representative plasma sample” value ([1]; one subject after oral Δ8-THCV in MCT oil, Figure A1) was 11.8 ng/mL. For the same compound, the “tmax later after doses greater than 50 mg compared to the 12.5 mg and 25 mg doses” value ([1]; oral Δ8-THCV, plasma) was 1.3 fold and the CB2 receptor activation (CB2 receptors) was “activate CB2 receptors”.
